Assay results published in ChEMBL document CHEMBL1201862, “PubChem BioAssay data set” (2004).
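Exposure lasted 48 hours, with cells grown in 96-well plates and compounds tested at five concentrations. GI50 = concentration required for 50% inhibition of growth.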 The source made the active and inactive calls. Cut-off read from the data, not from the text of the source: active = GI50 up to about 1.1 µM and inactive = higher.

Key:
Experiment in all cases: inhibition of tumour cell growth, NCI panel, 48 h
786-0 = system: 786-0
A498 = system: A498
A549 = system: A549
ACHN = system: ACHN
CCRF-CEM = system: CCRF-CEM
COLO 205 = system: COLO 205
DLD-1 = system: DLD-1
DMS-114 = system: DMS-114
DMS-273 = system: DMS-273
EKVX = system: EKVX
HCC 2998 = system: HCC 2998
HCT-116 = system: HCT-116
HCT-15 = system: HCT-15
HL-60 = system: HL-60
HOP-18 = system: HOP-18
HOP-62 = system: HOP-62
HT-29 = system: HT-29
IGROV-1 = system: IGROV-1
K562 = system: K562
KM-20L2 = system: KM-20L2
KM12 = system: KM12
LOX IMVI = system: LOX IMVI
LXFL 529 = system: LXFL 529
M14 = system: M14
M19-MEL = system: M19-MEL
MOLT-4 = system: MOLT-4
Malme-3M = system: Malme-3M
NCI-H23 = system: NCI-H23
NCI-H460 = system: NCI-H460
NCI-H522 = system: NCI-H522
OVCAR-3 = system: OVCAR-3
OVCAR-4 = system: OVCAR-4
OVCAR-5 = system: OVCAR-5
OVCAR-8 = system: OVCAR-8
RXF 393 = system: RXF 393
SF-268 = system: SF-268
SF-539 = system: SF-539
SK-MEL-28 = system: SK-MEL-28
SK-MEL-2 = system: SK-MEL-2
SK-MEL-5 = system: SK-MEL-5
SK-OV-3 = system: SK-OV-3
SN12C = system: SN12C
SNB-19 = system: SNB-19
SNB-75 = system: SNB-75
SNB-78 = system: SNB-78
SR = system: SR
SW-620 = system: SW-620
TK-10 = system: TK-10
U-251 = system: U-251
UACC-257 = system: UACC-257
UACC-62 = system: UACC-62
UO-31 = system: UO-31
BT-549 = system: BT-549
CAKI-1 = system: CAKI-1
DU-145 = system: DU-145
HOP-92 = system: HOP-92
Hs-578T = system: Hs-578T
MCF7 = system: MCF7
MDA-MB-231 = system: MDA-MB-231
MDA-MB-435 = system: MDA-MB-435
MDA-N = system: MDA-N
NCI-H226 = system: NCI-H226
NCI/ADR-RES = system: NCI/ADR-RES
PC-3 = system: PC-3
RPMI-8226 = system: RPMI-8226
SF-295 = system: SF-295
T47D = system: T47D

CCOC(=O)c1c[nH]c2c(ccc3ncccc32)c1=O
GI50 (786-0): > 100 µM (inactive) | GI50 (A498): > 100 µM (inactive) | GI50 (A549): > 100 µM (inactive) | GI50 (ACHN): > 100 µM (inactive) | GI50 (CCRF-CEM): > 100 µM (inactive) | GI50 (COLO 205): > 100 µM (inactive) | GI50 (DLD-1): > 100 µM (inactive) | GI50 (DMS-114): > 100 µM (inactive) | GI50 (DMS-273): > 100 µM (inactive) | GI50 (EKVX): > 100 µM (inactive) | GI50 (HCC 2998): > 100 µM (inactive) | GI50 (HCT-116): > 100 µM (inactive) | GI50 (HCT-15): > 100 µM | GI50 (HL-60): > 100 µM (inactive) | GI50 (HOP-18): > 100 µM (inactive) | GI50 (HOP-62): > 100 µM (inactive) | GI50 (HT-29): > 100 µM (inactive) | GI50 (IGROV-1): > 100 µM (inactive) | GI50 (K562): > 100 µM (inactive) | GI50 (KM-20L2): > 100 µM (inactive) | GI50 (KM12): > 100 µM (inactive) | GI50 (LOX IMVI): > 100 µM (inactive) | GI50 (LXFL 529): > 100 µM (inactive) | GI50 (M14): > 100 µM (inactive) | GI50 (M19-MEL): > 100 µM (inactive) | GI50 (MOLT-4): > 100 µM (inactive) | GI50 (Malme-3M): > 100 µM (inactive) | GI50 (NCI-H23): > 100 µM (inactive) | GI50 (NCI-H460): > 100 µM (inactive) | GI50 (NCI-H522): > 100 µM (inactive) | GI50 (OVCAR-3): > 100 µM (inactive) | GI50 (OVCAR-4): > 100 µM (inactive) | GI50 (OVCAR-5): > 100 µM (inactive) | GI50 (OVCAR-8): > 100 µM (inactive) | GI50 (RXF 393): > 100 µM (inactive) | GI50 (SF-268): > 100 µM (inactive) | GI50 (SF-539): > 100 µM (inactive) | GI50 (SK-MEL-28): > 100 µM (inactive) | GI50 (SK-MEL-2): > 100 µM (inactive) | GI50 (SK-MEL-5): > 100 µM (inactive) | GI50 (SK-OV-3): > 100 µM (inactive) | GI50 (SN12C): > 100 µM (inactive) | GI50 (SNB-19): > 100 µM (inactive) | GI50 (SNB-75): > 100 µM (inactive) | GI50 (SNB-78): > 100 µM (inactive) | GI50 (SR): > 100 µM (inactive) | GI50 (SW-620): > 100 µM (inactive) | GI50 (TK-10): > 100 µM (inactive) | GI50 (U-251): > 100 µM (inactive) | GI50 (UACC-257): > 100 µM (inactive) | GI50 (UACC-62): > 100 µM (inactive) | GI50 (UO-31): > 100 µM (inactive)

O=C(O)CP(=O)(O)O
GI50 (786-0): > 100 µM (inactive) | GI50 (A498): > 100 µM (inactive) | GI50 (A549): > 100 µM (inactive) | GI50 (ACHN): > 100 µM (inactive) | GI50 (BT-549): > 100 µM (inactive) | GI50 (CAKI-1): > 100 µM (inactive) | GI50 (CCRF-CEM): > 100 µM (inactive) | GI50 (COLO 205): > 100 µM (inactive) | GI50 (DU-145): > 100 µM (inactive) | GI50 (EKVX): > 100 µM (inactive) | GI50 (HCC 2998): > 100 µM (inactive) | GI50 (HCT-116): > 100 µM (inactive) | GI50 (HCT-15): > 100 µM | GI50 (HL-60): > 100 µM (inactive) | GI50 (HOP-62): > 100 µM (inactive) | GI50 (HOP-92): > 100 µM (inactive) | GI50 (HT-29): > 100 µM (inactive) | GI50 (Hs-578T): > 100 µM (inactive) | GI50 (IGROV-1): > 100 µM (inactive) | GI50 (K562): > 100 µM (inactive) | GI50 (KM12): > 100 µM (inactive) | GI50 (LOX IMVI): > 100 µM (inactive) | GI50 (M14): > 100 µM (inactive) | GI50 (MCF7): > 100 µM (inactive) | GI50 (MDA-MB-231): > 100 µM (inactive) | GI50 (MDA-MB-435): > 100 µM (inactive) | GI50 (MDA-N): > 100 µM (inactive) | GI50 (MOLT-4): > 100 µM (inactive) | GI50 (Malme-3M): > 100 µM (inactive) | GI50 (NCI-H226): > 100 µM (inactive) | GI50 (NCI-H23): > 100 µM (inactive) | GI50 (NCI-H460): > 100 µM (inactive) | GI50 (NCI-H522): > 100 µM (inactive) | GI50 (NCI/ADR-RES): > 100 µM (inactive) | GI50 (OVCAR-3): > 100 µM (inactive) | GI50 (OVCAR-4): > 100 µM (inactive) | GI50 (OVCAR-5): > 100 µM (inactive) | GI50 (OVCAR-8): > 100 µM (inactive) | GI50 (PC-3): > 100 µM (inactive) | GI50 (RPMI-8226): > 100 µM (inactive) | GI50 (RXF 393): > 100 µM (inactive) | GI50 (SF-268): > 100 µM (inactive) | GI50 (SF-295): > 100 µM (inactive) | GI50 (SF-539): > 100 µM (inactive) | GI50 (SK-MEL-28): > 100 µM (inactive) | GI50 (SK-MEL-2): > 100 µM (inactive) | GI50 (SK-MEL-5): > 100 µM (inactive) | GI50 (SK-OV-3): > 100 µM (inactive) | GI50 (SN12C): > 100 µM (inactive) | GI50 (SNB-19): > 100 µM (inactive) | GI50 (SNB-75): > 100 µM (inactive) | GI50 (SR): > 100 µM (inactive) | GI50 (SW-620): > 100 µM (inactive) | GI50 (T47D): > 100 µM (inactive) | GI50 (TK-10): > 100 µM (inactive) | GI50 (U-251): > 100 µM (inactive) | GI50 (UACC-257): > 100 µM (inactive) | GI50 (UACC-62): > 100 µM (inactive) | GI50 (UO-31): > 100 µM (inactive)
